Assay [1] is described as follows: Food intake of mice on NDGA/CLA diets (Experiment 2). In kind it is in vivo. The following applies: male ICR mice. On the procedure:
After a 5 day adaptation period, four-week-old weanling male ICR mice (Harlan Sprague-Dawley) were randomly separated into groups that were fed one of the treatment diets for 4 weeks. Mice were fed either a control diet (as in Experiment 1), or a diet supplemented with CLA (0.1%), NDGA (0.1% or 0.005%), or CLA (0.1%) with NDGA (0.1% or 0.005%). The lower level of NDGA was chosen based on the level used as an antioxidant in the food industry. Supplemental NDGA was added to diets at the expense of sugar. Diet was stored at −20° C. until use. Mice were housed individually in a windowless room with a 12-h light-dark cycle in strict accordance to guidelines established by the Research Animal Resources Center of University of Wisconsin-Madison. Diet and water, available ad libitum, were freshly provided three times per week.

Assay [2] deals with lipoprotein lipase associated with 3T3-L1 adipocytes. Kind of assay: Heparin-releasable lipoprotein lipase (LPL) activity in 3T3-L1 adipocyte cultures. The class given is cell-based. The following applies: for LPL activity (in words): CLA 100 μM, aspirin 100 μM. On the procedure:
Using the same model, the effects on LPL of aspirin and NDGA, as compared to CLA, were tested. 3T3-L1 preadipocytes were cultured as described. […] Briefly, 3T3-L1 preadipocytes were grown to confluence at 37° C. in Dulbecco's Modified Eagle's Medium (DMEM) with 10% fetal bovine serum (FBS). At two days post-confluence (designated “day 0”) cell differentiation was induced with a mixture of methylisobutylxanthine (0.5 mM), dexamethasone (0.25 μM), and insulin (1 μg/ml) in DMEM containing 10% FBS. On “day 2” this medium was replaced with DMEM medium containing 10% FBS and insulin only. On “day 4” and thereafter the medium was DMEM plus 10% FBS only; this medium was subsequently replaced with fresh medium at 2 day intervals.
First, aspirin was tested along with PGE2, which is the final product of cyclooxygenase. Cells were treated with testing compounds for 4 hours before harvesting at day 6 or 7 post differentiation. The concentration of CLA, aspirin, and PGE2 were 1×10^−4 M, 1×10^−4 M, and 1×10^−6 M respectively. […] All dishes (including control) contained the same concentration of albumin (1×10^−4 M) and ethanol (final concentration of 0.1%).
Heparin-releasable lipoprotein lipase (LPL) activity (EC 3.1.1.34, 10 U heparin/ml media for 1 hr at 37° C.) was measured as described. Nilsson-Ehle, P. and M. C. […] Protein was determined using Bio-Rad DC Protein assay kit.
In a next set of cell culture experiments, shown in FIG. 4, cells were treated with testing compounds for 20–24 hours at day 7 post differentiation. […] CLA was complexed with albumin, and aspirin and NDGA were dissolved in ethanol. All dishes including control contained the same concentration of albumin (1×10^−4 M) and ethanol (final concentration of 0.05%). Numbers are mean±S.E. (n=7–8, collected from 2 independent experiments).
Cells were treated with other known lipoxygenase inhibitors. Cells were treated with testing compounds for 20–24 hours at day 6 or 7 post differentiation. Based on the ED50 of these inhibitors, various doses were first tested. In FIG. 5A, the concentration of SHA, CLA, ETYA, indomethacin, NDGA and AA861 were 1×10^−3 M, 1×10^−4 M, 1×10^−4 M, 1×10^−4 M, 1×10^−5 M and 1×10^−6 M, respectively. In FIG. 5B, the cells were treated with the test compounds at 1×10^−4 M. CLA was complexed with albumin and others were dissolved in ethanol. All dishes including control contained the same concentration of albumin (1×10^−4 M) and ethanol (final concentration of 0.1%). Numbers are mean±S.E. (in FIG. 5A, n=7–8, collected from 2 independent experiments, in FIG. 5B, n=11–12, collected from 3 independent experiments). […] Indomethacin blocks both cyclooxygenase and lipoxygenase, the two primary enzymes in the arachidonic acid metabolic cascade.

The test system of the next assay is 3T3-L1 adipocytes. Kind of assay: Cellular triacylglyceride (TG) in 3T3-L1 adipocytes. In kind it is cell-based. The following applies: treated 20–24 hours. On the procedure: Fat reduction by CLA is partly due to inhibition of lipoprotein lipase (LPL) in adipocytes, as has been previously shown using a 3T3-L1 adipocyte cell culture model. Using the same model, the effects on LPL of aspirin and NDGA, as compared to CLA, were tested. 3T3-L1 preadipocytes were cultured as described. Frost, S. C. and M. D. Lane, J. Biol. Chem. 260: 2646–2652(1985). Briefly, 3T3-L1 preadipocytes were grown to confluence at 37° C. in Dulbecco's Modified Eagle's Medium (DMEM) with 10% fetal bovine serum (FBS). At two days post-confluence (designated “day 0”) cell differentiation was induced with a mixture of methylisobutylxanthine (0.5 mM), dexamethasone (0.25 μM), and insulin (1 μg/ml) in DMEM containing 10% FBS. On “day 2” this medium was replaced with DMEM medium containing 10% FBS and insulin only. On “day 4” and thereafter the medium was DMEM plus 10% FBS only; this medium was subsequently replaced with fresh medium at 2 day intervals.
Cells were treated with other known lipoxygenase inhibitors. Cells were treated with testing compounds for 20–24 hours at day 6 or 7 post differentiation. Based on the ED50 of these inhibitors, various doses were first tested. In FIG. 5A, the concentration of SHA, CLA, ETYA, indomethacin, NDGA and AA861 were 1×10^−3 M, 1×10^−4 M, 1×10^−4 M, 1×10^−4 M, 1×10^−5 M and 1×10^−6 M, respectively. […]

Setting [3] is: diet with 0.1% CLA and/or 0.1% NDGA, mean±S.E., N=5–6.

Regarding Conjugated linoleic acid [CLA], in assay [1] (0.1% CLA, with or without 0.1% NDGA), the “food intake compared to control (in words)” value was “reduced food intake only at week 3”. For the same substance, the “food intake, Total” value in assay [1] (4 weeks diet with 0.1% CLA and/or 0.1% NDGA, mean±S.E., N=5–6) was 136.6 ± 1.2 g/mouse. In addition, in assay [1] (setting [3]), the “food intake, Week 1” value was 34.5 ± 0.3 g/mouse and the “food intake, Week 4” value is listed as 32.4 ± 0.7 g/mouse. Moreover, the “LPL activity (in words)” value in assay [2] (FIG. 3, treated 4 hours, day 6 or 7 post differentiation, PGE2 1 μM) was “significantly decreased LPL activity”. In addition, in assay [2] (FIG. 4, treated 20–24 hours at day 7 post differentiation, NDGA 50 μM), the “LPL activity (in words)” value is given as “significantly reduced LPL activity”. Moreover, the “potency in reducing LPL (rank order, in words)” value in assay [2] (FIG. 5B, 20–24 hours, all test compounds at 100 μM) was “AA861>NDGA>ETYA>Indomethacin>CLA”. For the same substance, the “amount of cellular triacylglyceride (TG) (in words)” value with 3T3-L1 adipocytes is listed as “reduced”.

Values taken from US7365099B2, “Animal body fat control” (Wisconsin Alumni Research Foundation, priority 2001, dated 2008).
